From PubChem BioAssay AID248 (DTP/NCI, 2004) come the findings set out here.

Toxic doses and inconclusive results are not listed.

The test system of the assay is L1210 leukemia ip in BDF1 mice, survival T/C. The experiment in a line: NCI In Vivo Anticancer Drug Screen. Data for tumor model L1210 Leukemia (intraperitoneal) in B6D2F1 (BDF1) mice. Conditions: endpoint: mean survival time, higher = longer survival. The method in brief: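 Transplantable tumor model; survival measured in treated vs vehicle control mice. Value = treated/control.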

The mark [1] stands for this setting: dose: 50.0 mg/kg/injection, schedule: Q01DX009 (ip), vehicle: saline.
[2] abbreviates: dose: 50.0 mg/kg/injection, schedule: Q04DX003 (ip), vehicle: saline.
Where [3] appears, read: dose: 100.0 mg/kg/injection, schedule: Q01DX009 (ip), vehicle: saline.
[4] abbreviates: dose: 100.0 mg/kg/injection, schedule: Q04DX003 (ip), vehicle: saline.
Setting [5] is: dose: 200.0 mg/kg/injection, schedule: Q04DX003 (ip), vehicle: saline.
Where [6] appears, read: dose: 100.0 mg/kg/injection, schedule: Q01DX001 (ip), vehicle: saline.
The mark [7] stands for this setting: dose: 200.0 mg/kg/injection, schedule: Q01DX001 (ip), vehicle: saline.
Where [8] appears, read: dose: 400.0 mg/kg/injection, schedule: Q01DX001 (ip), vehicle: saline.
The mark [9] stands for this setting: dose: 100.0 mg/kg/injection, schedule: Q04DX003 (ip), vehicle: saline with Tween-80.
The mark [10] stands for this setting: dose: 200.0 mg/kg/injection, schedule: Q04DX003 (ip), vehicle: saline with Tween-80.
[11] abbreviates: dose: 10.0 mg/kg/injection, schedule: Q01DX001 (ip), vehicle: saline.
Setting [12] is: dose: 20.0 mg/kg/injection, schedule: Q01DX001 (ip), vehicle: saline.
Setting [13] is: dose: 40.0 mg/kg/injection, schedule: Q01DX001 (ip), vehicle: saline.
[14] abbreviates: dose: 100.0 mg/kg/injection, schedule: Q04DX003 (ip), vehicle: Klucel (hydroxypropylcellulose) (HPC).
Setting [15] is: dose: 200.0 mg/kg/injection, schedule: Q04DX003 (ip), vehicle: Klucel (hydroxypropylcellulose) (HPC).
Setting [16] is: dose: 400.0 mg/kg/injection, schedule: Q04DX003 (ip), vehicle: Klucel (hydroxypropylcellulose) (HPC).
Setting [17] is: dose: 50.0 mg/kg/injection, schedule: Q01DX001 (ip), vehicle: saline.
The mark [18] stands for this setting: dose: 400.0 mg/kg/injection, schedule: Q04DX003 (ip), vehicle: saline with Tween-80.
The mark [19] stands for this setting: dose: 25.0 mg/kg/injection, schedule: Q04DX002 (ip), vehicle: saline with Tween-80.
Where [20] appears, read: dose: 100.0 mg/kg/injection, schedule: Q04DX002 (ip), vehicle: saline with Tween-80.

Take `CCN(CC)C(=O)C1C=C2c3cccc4c3c(c(Br)n4C)CC2N(C)C1` (stereo not drawn): the T/C by setting is: (dose: 12.5 mg/kg/injection, schedule: Q01DX009 (ip), vehicle: saline) 102 % of control; (dose: 25.0 mg/kg/injection, schedule: Q01DX009 (ip), vehicle: saline) 120 % of control; (dose: 25.0 mg/kg/injection, schedule: Q04DX003 (ip), vehicle: saline) 103 % of control; under setting [1], 112 % of control; under setting [2], 98 % of control; under setting [3], 107 % of control. Besides, the T/C under setting [4] was 104 % of control and the T/C under setting [5] is 106 % of control.

On to `CCOc1ccc2ccsc2c1`, for which the T/C under setting [6] is 98 % of control, the T/C under setting [7] was 98 % of control and the T/C under setting [8] is 96 % of control.

For `CC(=O)O[C@H]1CC[C@]2(C)C3=C([C@@H](OO)C[C@H]2C1(C)C)[C@]1(C)CC[C@H]([C@H](C)CCCC(C)C)[C@@]1(C)CC3`, the T/C (dose: 100.0 mg/kg/injection, schedule: Q01DX001 (ip), vehicle: other) is 97 % of control; the T/C (dose: 200.0 mg/kg/injection, schedule: Q01DX001 (ip), vehicle: other) was 95 % of control; the T/C (dose: 400.0 mg/kg/injection, schedule: Q01DX001 (ip), vehicle: other) was 95 % of control.

In the case of `CCOC(=O)c1cnc(SC)nc1N(C)C`, the T/C was 96 % of control under setting [9] and 96 % of control under setting [10].

As to `CC(C)C1=CC23CCC4C(C)(C(=O)Cl)CCCC4(C)C2CC1C1(Cl)C(=O)OC(=O)C31Cl` (stereo not drawn), the T/C was 94 % of control (dose: 75.0 mg/kg/injection, schedule: Q01DX001 (ip), vehicle: other); 93 % of control (dose: 150.0 mg/kg/injection, schedule: Q01DX001 (ip), vehicle: other); 89 % of control (dose: 300.0 mg/kg/injection, schedule: Q01DX001 (ip), vehicle: other).

On to `CCCCNc1nc2ccccc2[nH]1`, for which the T/C is, setting by setting: (dose: 5.0 mg/kg/injection, schedule: Q01DX009 (ip), vehicle: acetone) 98 % of control; under setting [11], 103 % of control; (dose: 10.0 mg/kg/injection, schedule: Q01DX009 (ip), vehicle: acetone) 98 % of control; under setting [12], 101 % of control; (dose: 20.0 mg/kg/injection, schedule: Q01DX009 (ip), vehicle: acetone) 110 % of control; under setting [13], 101 % of control.

Regarding `CC[N+]([O-])(CC)CCNc1ccc(CO)c2sc3ccccc3c(=O)c12`, the T/C reads like this: under setting [1], 92 % of control; under setting [3], 121 % of control.

Consider `CCOC(=O)C(=Cc1csc2ccccc12)C(=O)OCC`, for which the T/C (dose: 100.0 mg/kg/injection, schedule: Q01DX001 (ip), vehicle: carboxymethylcellulose (CMC)) is 92 % of control; the T/C (dose: 200.0 mg/kg/injection, schedule: Q01DX001 (ip), vehicle: carboxymethylcellulose (CMC)) is 94 % of control; the T/C (dose: 400.0 mg/kg/injection, schedule: Q01DX001 (ip), vehicle: carboxymethylcellulose (CMC)) was 94 % of control.

As to `Nc1nc(N)c2nc(COc3ccccc3)cnc2n1`, the T/C by setting is: (dose: 20.0 mg/kg/injection, schedule: Q01DX009 (ip), vehicle: Klucel (hydroxypropylcellulose) (HPC)) 98 % of control; (dose: 40.0 mg/kg/injection, schedule: Q01DX009 (ip), vehicle: Klucel (hydroxypropylcellulose) (HPC)) 107 % of control; (dose: 80.0 mg/kg/injection, schedule: Q01DX009 (ip), vehicle: Klucel (hydroxypropylcellulose) (HPC)) 107 % of control.

As to `CC1(C)OC(=O)CC1c1ccccc1` (stereo not drawn), the T/C is, setting by setting: (dose: 5.0 mg/kg/injection, schedule: Q01DX001 (ip), vehicle: saline) 108 % of control; under setting [11], 101 % of control; under setting [12], 86 % of control; under setting [13], 97 % of control; (dose: 80.0 mg/kg/injection, schedule: Q01DX001 (ip), vehicle: saline) 101 % of control; under setting [6], 102 % of control. The T/C under setting [8] is 95 % of control.

As to `C=COC(=O)CCCCCCCCCCCCCCCCC`, the T/C is 101 % of control under setting [14], 100 % of control under setting [15] and 103 % of control under setting [16].

As to `Clc1ccc(/C=N/Nc2nnc(N/N=C/c3ccc(Cl)cc3)c3ccccc23)cc1`, the T/C is 95 % of control under setting [17], 101 % of control under setting [6], 101 % of control under setting [7] and 95 % of control under setting [8].

`Cc1cc(Cl)c(C)c(C(=O)O)c1Cl`: the T/C under setting [1] was 107 % of control; the T/C under setting [2] was 103 % of control; the T/C under setting [6] is 91 % of control; the T/C under setting [3] was 107 % of control; the T/C under setting [4] was 105 % of control; the T/C under setting [7] was 98 % of control. Besides, the T/C runs as follows: (dose: 200.0 mg/kg/injection, schedule: Q01DX009 (ip), vehicle: saline) 105 % of control; under setting [5], 100 % of control.

For `C/C(=C/C(=O)O)c1ccc([N+](=O)[O-])cc1`, the T/C by setting is: under setting [9], 100 % of control; under setting [10], 96 % of control; under setting [18], 100 % of control.

Take `O=C(N/N=C\c1cccc2ccccc12)C(=O)N/N=C/c1cccc2ccccc12`: the T/C runs as follows: under setting [9], 88 % of control; under setting [10], 88 % of control; under setting [18], 91 % of control.

In the case of `OC1C=NC=N1` (stereo not drawn), the T/C under setting [4] is 92 % of control; the T/C under setting [5] is 109 % of control; the T/C (dose: 400.0 mg/kg/injection, schedule: Q04DX003 (ip), vehicle: saline) was 95 % of control.

As for `CC1C(OC(=O)CCc2ccccc2)=CCC2C1(C)CCC1C2(C)CCC2(C)C3CC(C)(C)CCC3(C)CCC12C` (stereo not drawn), the T/C reads like this: under setting [17], 98 % of control; under setting [6], 102 % of control; under setting [7], 95 % of control.

In the case of `O=C1S/C(=C/c2ccccc2)C(=O)N1c1ccccc1`, the T/C reads like this: (dose: 100.0 mg/kg/injection, schedule: Q01DX001 (ip), vehicle: Klucel (hydroxypropylcellulose) (HPC)) 98 % of control; (dose: 200.0 mg/kg/injection, schedule: Q01DX001 (ip), vehicle: Klucel (hydroxypropylcellulose) (HPC)) 90 % of control; (dose: 400.0 mg/kg/injection, schedule: Q01DX001 (ip), vehicle: Klucel (hydroxypropylcellulose) (HPC)) 94 % of control.

Consider `CC(=O)Oc1ccc(Nc2c3ccccc3nc3ccccc23)cc1`, for which the T/C by setting is: under setting [19], 106 % of control; (dose: 44.0 mg/kg/injection, schedule: Q04DX003 (ip), vehicle: saline with Tween-80) 116 % of control; (dose: 66.0 mg/kg/injection, schedule: Q04DX003 (ip), vehicle: saline with Tween-80) 119 % of control; under setting [20], 181 % of control; under setting [9], 123 % of control; (dose: 150.0 mg/kg/injection, schedule: Q04DX003 (ip), vehicle: saline with Tween-80) 116 % of control.

As for `N#CC(c1cccnc1)N1CCOCC1` (stereo not drawn), the T/C reads like this: under setting [19], 103 % of control; (dose: 50.0 mg/kg/injection, schedule: Q04DX002 (ip), vehicle: saline with Tween-80) 100 % of control; under setting [20], 96 % of control.

As to `CC(NC(=O)Oc1cccc(NC(=O)N(C)C)c1)C(C)(C)C` (stereo not drawn), the T/C is 109 % of control (dose: 100.0 mg/kg/injection, schedule: Q01DX009 (ip), vehicle: saline with Tween-80); 96 % of control (dose: 200.0 mg/kg/injection, schedule: Q01DX009 (ip), vehicle: saline with Tween-80); 98 % of control (dose: 400.0 mg/kg/injection, schedule: Q01DX009 (ip), vehicle: saline with Tween-80).

In the case of `Cc1ccc(NC(=O)Nc2cccc(O)c2)c([N+](=O)[O-])c1`, the T/C by setting is: (dose: 50.0 mg/kg/injection, schedule: Q01DX009 (ip), vehicle: Klucel (hydroxypropylcellulose) (HPC)) 98 % of control; (dose: 100.0 mg/kg/injection, schedule: Q01DX009 (ip), vehicle: Klucel (hydroxypropylcellulose) (HPC)) 102 % of control; under setting [14], 103 % of control; (dose: 200.0 mg/kg/injection, schedule: Q01DX009 (ip), vehicle: Klucel (hydroxypropylcellulose) (HPC)) 98 % of control; under setting [15], 106 % of control; under setting [16], 103 % of control.
